Experimental data from patent publication US20250304576A1 (Cancer Research Technology Limited, priority 2022, published 2025).

Columns and labels:
Recombinant IKKα = molecular target: T1, Recombinant IKKα (Homo sapiens, UniProt O15111); test: DELFIA IKKα kinase assay (apparent Ki, Cheng-Prusoff); assay type: biochemical
T1 construct: purchased Millipore, Dundee, UK
T1 sequence (O15111 1-745): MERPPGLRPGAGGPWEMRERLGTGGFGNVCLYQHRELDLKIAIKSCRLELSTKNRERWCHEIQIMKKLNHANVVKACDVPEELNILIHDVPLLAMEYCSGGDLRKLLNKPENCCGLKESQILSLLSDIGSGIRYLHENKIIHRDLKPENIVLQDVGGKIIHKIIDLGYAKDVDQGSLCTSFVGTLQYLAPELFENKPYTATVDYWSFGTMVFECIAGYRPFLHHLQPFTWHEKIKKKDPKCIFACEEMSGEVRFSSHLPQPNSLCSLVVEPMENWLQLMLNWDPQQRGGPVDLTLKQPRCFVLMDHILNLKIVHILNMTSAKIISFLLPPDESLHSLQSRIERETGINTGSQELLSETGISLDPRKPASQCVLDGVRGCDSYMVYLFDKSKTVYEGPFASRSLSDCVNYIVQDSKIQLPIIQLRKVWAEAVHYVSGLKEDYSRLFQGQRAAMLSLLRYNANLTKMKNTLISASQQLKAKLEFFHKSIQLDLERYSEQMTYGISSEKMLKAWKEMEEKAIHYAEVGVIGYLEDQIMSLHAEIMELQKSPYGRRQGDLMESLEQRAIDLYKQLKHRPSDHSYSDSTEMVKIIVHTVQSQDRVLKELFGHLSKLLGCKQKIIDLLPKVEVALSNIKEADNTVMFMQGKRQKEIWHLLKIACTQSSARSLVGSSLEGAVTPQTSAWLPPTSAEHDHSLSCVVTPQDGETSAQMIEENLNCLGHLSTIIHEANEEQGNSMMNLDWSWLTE
Procedure, shortened: (§1)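 DELFIA time-resolved fluorescence (ex 340/em 615 nm) quantified phosphorylation of a biotinylated IκB-α Ser32 peptide (0.375 μM) by 37 nM recombinant IKKα or IKKβ. Reactions used 40 μM ATP, Tris pH 7.5 buffer with MgCl2, DTT and BSA, 60 min at 30° C. Cheng-Prusoff equation gave apparent Ki.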

Recombinant IKKβ = molecular target: T2, Recombinant IKKβ (Homo sapiens, UniProt O14920); test: DELFIA IKKβ kinase assay (apparent Ki, Cheng-Prusoff); assay type: biochemical
T2 construct: purchased Millipore, Dundee, UK
T2 sequence (O14920 1-756): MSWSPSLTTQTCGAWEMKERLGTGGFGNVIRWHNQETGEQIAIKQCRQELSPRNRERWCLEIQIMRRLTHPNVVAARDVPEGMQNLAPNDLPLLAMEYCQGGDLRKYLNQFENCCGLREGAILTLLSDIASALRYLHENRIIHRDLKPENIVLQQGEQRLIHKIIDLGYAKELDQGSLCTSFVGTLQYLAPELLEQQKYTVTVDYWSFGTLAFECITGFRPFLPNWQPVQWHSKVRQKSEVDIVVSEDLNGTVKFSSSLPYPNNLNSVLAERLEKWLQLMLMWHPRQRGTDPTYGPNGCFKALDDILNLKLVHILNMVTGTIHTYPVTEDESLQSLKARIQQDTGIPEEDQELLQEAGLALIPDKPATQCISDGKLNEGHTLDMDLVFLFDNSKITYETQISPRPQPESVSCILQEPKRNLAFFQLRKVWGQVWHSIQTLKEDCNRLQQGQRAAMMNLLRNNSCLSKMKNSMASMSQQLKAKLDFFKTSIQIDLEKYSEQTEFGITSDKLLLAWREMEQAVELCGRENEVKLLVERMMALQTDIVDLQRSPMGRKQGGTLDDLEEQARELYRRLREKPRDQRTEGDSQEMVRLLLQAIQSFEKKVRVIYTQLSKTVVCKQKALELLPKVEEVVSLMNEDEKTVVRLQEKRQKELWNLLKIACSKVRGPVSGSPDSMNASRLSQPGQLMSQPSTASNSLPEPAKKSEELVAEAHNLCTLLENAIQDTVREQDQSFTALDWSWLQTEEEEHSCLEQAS
Procedure, shortened: as §1

[1] = non-italicised figure: DELFIA assay
[2] = DELFIA assay (first line of an example)

| Compound | Ki (Recombinant IKKα; [1]) [nM] | Ki (Recombinant IKKβ; [1]) [nM] | Ki (Recombinant IKKα; [2]) [nM] | Ki (Recombinant IKKβ; [2]) [nM] |
| --- | --- | --- | --- | --- |
| Nc1n[nH]c2ccc(-c3ccnc(NC(=O)NCc4ccccc4)c3)cc12 [Example 45, 1-(4-(3-Amino-1H-indazol-5-yl)pyridin-2-yl)-3-benzylurea] | 152 | 357 |  |  |
| COc1cccc(-c2cc(-c3ccnc(N)c3)cc3c(N)n[nH]c23)c1 [Example 109, 5-(2-Aminopyridin-4-yl)-7-(3-methoxyphenyl)-1H-indazol-3-amine] | 55 | 587 |  |  |
| Nc1n[nH]c2ccc(-c3ccnc4[nH]c(CC5CCN(Cc6ccccc6)CC5)cc34)cc12 [Example 273, 5-(2-((1-benzylpiperidin-4-yl)methyl)-1H-pyrrolo[2,3-b]pyridin-4-yl)-1H-indazol-3-amine] |  |  | 5 | 200 |
| Nc1n[nH]c2ccc(-c3ccnc(NC(=O)Nc4cccc(CO)c4)c3)cc12 [Example 54, 1-(4-(3-Amino-1H-indazol-5-yl)pyridin-2-yl)-3-(3-(hydroxymethyl)phenyl)urea] | 14 | 419 |  |  |
| Nc1n[nH]c2ccc(-c3ccnc(NC(=O)NCc4ccncc4)c3)cc12 [Example 49, 1-(4-(3-Amino-1H-indazol-5-yl)pyridin-2-yl)-3-(pyridin-4-ylmethyl)urea] | 304 | 1840 |  |  |
| COC(=O)c1ccc(C#Cc2c(-c3ccc4[nH]nc(N)c4c3)ccnc2N)cc1 [Example 80, Methyl 4-((2-amino-4-(3-amino-1H-indazol-5-yl)150yridine-3-yl)ethynyl)benzoate] | 2 | 15 |  |  |
| COC(=O)Nc1cc(-c2cc(-c3ccc(CN4CCOCC4)cc3)c3[nH]nc(N)c3c2)ccn1 [Example 328, Methyl (4-(3-amino-7-(4-(morpholinomethyl)phenyl)-1H-indazol-5-yl)pyridin-2-yl)carbamate] |  |  | 24 | 407 |
| NC(=O)c1cccc(NC(=O)Nc2cc(-c3ccc4[nH]nc(N)c4c3)ccn2)c1 [Example 55, 3-(3-(4-(3-Amino-1H-indazol-5-yl)pyridin-2-yl)ureido)benzamide] | 21 | 503 |  |  |
| CN(C)c1ccc(-c2cc(-c3ccnc(N)c3)cc3c(N)n[nH]c23)cc1 [Example 119, 5-(2-Aminopyridin-4-yl)-7-(4-(dimethylamino)phenyl)-1H-indazol-3-amine] | 84 | 2510 |  |  |
| Nc1cc(-c2cc(-c3ccncc3)c3[nH]nc(N)c3c2)ccn1 [Example 128, 5-(2-Aminopyridin-4-yl)-7-(pyridin-4-yl)-1H-indazol-3-amine] | 35 | 1300 |  |  |
| Nc1cc(-c2cc(-c3ccc(O)cc3)c3[nH]nc(N)c3c2)ccn1 [Example 117, 4-(3-Amino-5-(2-aminopyridin-4-yl)-1H-indazol-7-yl)phenol] | 17 | 235 |  |  |
| CCCNc1cc(-c2ccc3[nH]nc(N)c3c2)ccn1 [Example 13, 5-(2-(Propylamino)pyridin-4-yl)-1H-indazol-3-amine] | 49 | 251 |  |  |
| Nc1n[nH]c2ccc(-c3ccnc(NC(=O)Nc4cccc(OCc5ccc(F)cc5)c4)c3)cc12 [Example 58, 1-(4-(3-Amino-1H-indazol-5-yl)pyridin2-yl)-3-(3-((4-fluorobenzyl)oxy)phenyl)urea] | 80 | 1970 |  |  |

Results, then the compound that gave them:

| Ki (Recombinant IKKα; [1]) [nM] | Ki (Recombinant IKKβ; [1]) [nM] | Ki (Recombinant IKKα; [2]) [nM] | Ki (Recombinant IKKβ; [2]) [nM] | Compound |
| --- | --- | --- | --- | --- |
|  |  | 8 | 126 | Nc1n[nH]c2c(Cl)cc(-c3ccnc4[nH]c(C(=O)NCCN5CCCCC5)cc34)cc12 [Example 274, 4-(3-Amino-7-chloro-1H-indazol-5-yl)-N-(2-(piperidin-1-yl)ethyl)-1H-pyrrolo[2,3-b]pyridine-2-carboxamide] |
| 34 | 3490 |  |  | CNC(=O)Nc1cc(-c2cc(C#CC(C)(C)C)c3[nH]nc(N)c3c2)ccn1 [Example 186, 1-(4-(3-Amino-7-(3,3-dimethylbut-1-yn-1-yl)-1H-indazol-5-yl)pyridin-2-yl)-3-methylurea] |
| 23 | 2330 |  |  | CC(C)(C)C#Cc1cc(-c2cc(N)ncc2F)cc2c(N)n[nH]c12 [Example 148, 5-(2-Amino-5-fluoropyridin-4-yl)-7-(3,3-dimethylbut-1-yn-1-yl)-1H-indazol-3-amine] |
|  |  | 8 | 377 | CN(C)CCNC(=O)c1cc2c(-c3ccc4[nH]nc(N)c4c3)ccnc2[nH]1 [Example 242, 4-(3-Amino-1H-indazol-5-yl)-N-(2-(dimethylamino)ethyl)-1H-pyrrolo[2,3-b]pyridine-2-carboxamide] |
|  |  | 153 | 2330 | Nc1n[nH]c2c(C#CC3(O)CCCCCC3)cc(-c3ccnc4[nH]ccc34)cc12 [Example 209, 1-((3-Amino-5-(1H-pyrrolo[2,3-b]pyridin-4-yl)-1H-indazol-7-yl)ethynyl)cycloheptan-1-ol] |
|  |  | 6 | 70 | Nc1n[nH]c2ccc(-c3ccnc4[nH]c(C(=O)NC5CCCC5)cc34)cc12 [Example 235, 4-(3-Amino-1H-indazol-5-yl)-N-cyclopentyl-1H-pyrrolo[2,3-b]pyridine-2-carboxamide] |
|  |  | 55 | 242 | CC(C)(O)C#Cc1cc(-c2ccnc(NC(=O)C3CC3)c2)cc2c(N)n[nH]c12 [Example 290, N-(4-(3-Amino-7-(3-hydroxy-3-methylbut-1-yn-1-yl)-1H-indazol-5-yl)pyridin-2-yl)cyclopropanecarboxamide] |
| 4 | 93 |  |  | Nc1n[nH]c2c(Cl)cc(-c3ccnc4[nH]ccc34)cc12 [Example 4, 7-Chloro-5-(1H-pyrrolo[2,3-b]pyridin-4-yl)-1H-indazol-3-amine] |
|  |  | 16 | 540 | CC(C)(C)C#Cc1cc(-c2ccnc3[nH]c(C(C)(C)O)cc23)cc2c(N)n[nH]c12 [Example 298, 2-(4-(3-Amino-7-(3,3-dimethylbut-1-yn-1-yl)-1H-indazol-5-yl)-1H-pyrrolo[2,3-b]pyridin-2-yl)propan-2-ol] |
|  |  | 82 | 1240 | CC(C)(C)C#Cc1cc(-c2ccnc3[nH]c(C4CCC4)nc23)cc2c(N)n[nH]c12 [Example 301, 5-(2-Cyclobutyl-3H-imidazo[4,5-b]pyridin-7-yl)-7-(3,3-dimethylbut-1-yn-1-yl)-1H-indazol-3-amine] |
| 114 | 970 |  |  | Nc1n[nH]c2ccc(-c3ccnc(NC(=O)NC4CCCC4)c3)cc12 [Example 39, 1-(4-(3-Amino-1H-indazol-5-yl)pyridin-2-yl)-3-cyclopentylurea] |
